Experimental findings from patent US20090062251A1, “Novel Compounds 002” (ASTRAZENECA AB, priority 2007, published 2009) are described below.

Test [1] addresses T1, Human CB1 receptor (hCB1) (Homo sapiens, UniProt P21554).
T1 construct: purchased Receptor Biology
Description: hCB1 GTPγS binding. Format: biochemical. As to conditions: for EC50: hCB1 membranes, GTPγ35S, 10-point dose-response; for Emax: maximal stimulated binding determined with 10 μM Win 55,212-2. Summed up: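 Human CB1 membranes in 50 mM Hepes, 100 mM NaCl, 1 mM EDTA, 5 mM MgCl2, 0.1% BSA, pH 7.4 were preincubated 5 min with GDP (30 μM final). Basal and maximal binding were defined without or with 10 μM Win 55,212-2; incubation 60 min RT; filter-bound radioactivity counted. Antagonist reversal used fixed antagonist with agonist curve, or fixed agonist with antagonist curve.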

In test [2] the target is T1, Human CB1 receptor (hCB1). Description: hCB1 receptor binding (3H-CP55,940 displacement). The note with it: hCB1 membranes, Ki=IC50/(1+[rad]/Kd). The protocol: hCB1 and hCB2 Receptor Binding
Human CB1 receptor from Receptor Biology (hCB1) or human CB2 receptor from BioSignal (hCB2) membranes are thawed at 37° C., passed 3 times through a 25-gauge blunt-end needle, diluted in the cannabinoid binding buffer (50 mM Tris, 2.5 mM EDTA, 5 mM MgCl2, and 0.5 mg/mL BSA fatty acid free, pH 7.4) and aliquots containing the appropriate amount of protein are distributed in 96-well plates. […] The total and non-specific binding are determined in the absence and presence of 0.2 μM of HU210 respectively. The plates are vortexed and incubated for 60 minutes at room temperature, filtered through Unifilters GF/B (presoaked in 0.1% polyethyleneimine) with the Tomtec or Packard harvester using 3 mL of wash buffer (50 mM Tris, 5 mM MgCl2, 0.5 mg BSA pH 7.0). The filters are dried for 1 hour at 55° C. The radioactivity (cpm) is counted in a TopCount (Packard) after adding 65 μl/well of MS-20 scintillation liquid.
Based on the above assays, the dissociation constant (Ki) for a particular compound of the invention towards a particular receptor is determined using the following equation:
[rad] is a standard or reference radioactive ligand concentration at that moment; and
Kd is the dissociation constant of the radioactive ligand towards the particular receptor.

T1 sequence (P21554 whole entry): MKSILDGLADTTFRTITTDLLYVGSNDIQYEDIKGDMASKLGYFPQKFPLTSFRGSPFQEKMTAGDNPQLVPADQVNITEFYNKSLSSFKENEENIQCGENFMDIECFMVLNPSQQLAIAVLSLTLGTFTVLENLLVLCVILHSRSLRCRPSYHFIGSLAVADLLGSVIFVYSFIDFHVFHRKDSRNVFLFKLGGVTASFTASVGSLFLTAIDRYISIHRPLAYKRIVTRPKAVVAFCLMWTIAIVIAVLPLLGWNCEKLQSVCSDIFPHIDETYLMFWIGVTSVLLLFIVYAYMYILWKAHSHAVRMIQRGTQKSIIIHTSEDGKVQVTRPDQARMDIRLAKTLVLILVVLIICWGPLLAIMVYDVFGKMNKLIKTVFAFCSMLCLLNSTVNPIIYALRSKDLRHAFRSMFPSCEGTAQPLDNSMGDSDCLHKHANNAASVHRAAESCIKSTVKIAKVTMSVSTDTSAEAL

Turning to `CN(CCCC(=O)NCCO)C(=O)c1ccc2c(c1)c1c(n2C)CCC(C2CCOCC2)C1` (stereo not drawn) [N-[3-(2-hydroxyethylcarbamoyl)propyl]-N,9-dimethyl-6-(oxan-4-yl)-5,6,7,8-tetrahydrocarbazole-3-carboxamide], in test [1], it took 155 nM to reach a half-maximal effect (EC50) and the Emax was 122%. The same molecule came in with a Ki in test [2] of 90.9 nM.

In test [1], `CN(CCCC(=O)NC1CC1)C(=O)c1ccc2c(c1)c1c(n2C)CCC(C2CCOCC2)C1` (stereo not drawn) [N-[3-(cyclopropylcarbamoyl)propyl]-N,9-dimethyl-6-(oxan-4-yl)-5,6,7,8-tetrahydrocarbazole-3-carboxamide] had an EC50 of 16.2 nM and an Emax of 113%. Affinity in test [2] was put at a Ki of 7.1 nM.

In test [1], `CCN(CCCC(=O)NC1CC1)C(=O)c1ccc2c(c1)c1c(n2C)CCC(C2CCOCC2)C1` (stereo not drawn) [N-[3-(cyclopropylcarbamoyl)propyl]-N-ethyl-9-methyl-6-(oxan-4-yl)-5,6,7,8-tetrahydrocarbazole-3-carboxamide] registered an EC50 of 4.9 nM and an Emax of 116%. Also, the affinity in test [2], expressed as Ki, was 2.8 nM.

On to `CCNC(=O)CCCN(C)C(=O)c1ccc2c(c1)c1c(n2CCF)CCC(C2CCOCC2)C1` (stereo not drawn) [N-[3-(ethylcarbamoyl)propyl]-9-(2-fluoroethyl)-N-methyl-6-(oxan-4-yl)-5,6,7,8-tetrahydrocarbazole-3-carboxamide], for which, in test [1], the 50% effective concentration (EC50) worked out at 372 nM and the Emax amounted to 109%. Besides, in test [2], the Ki was 237 nM.

In the case of `CCNC(=O)CCCN(C)C(=O)c1ccc2c(c1)c1c(n2C)CCC(C2CCOCC2)C1` (stereo not drawn) [N-[3-(ethylcarbamoyl)propyl]-N,9-dimethyl-6-(oxan-4-yl)-5,6,7,8-tetrahydrocarbazole-3-carboxamide], in test [1], the EC50 worked out at 63.5 nM and the maximum response (Emax) came to 111%. The same molecule had an inhibitory constant (Ki) in test [2] of 36.6 nM.

In test [1], `C[C@H](C(=O)NCCF)N(C)C(=O)c1ccc2c(c1)c1c(n2C)CCC(C2CCOCC2)C1` (stereo partly drawn) [N-[(1R)-1-(2-fluoroethylcarbamoyl)ethyl]-N,9-dimethyl-6-(oxan-4-yl)-5,6,7,8-tetrahydrocarbazole-3-carboxamide] had a concentration giving a half-maximal response (EC50) of 353 nM and an Emax of 107%. The inhibition constant (Ki) in test [2] was 157 nM.

Turning to `C[C@H](C(=O)NC1CC1)N(C)C(=O)c1ccc2c(c1)c1c(n2C)CCC(C2CCOCC2)C1` (stereo partly drawn) [N-[(1R)-1-(cyclopropylcarbamoyl)ethyl]-N,9-dimethyl-6-(oxan-4-yl)-5,6,7,8-tetrahydrocarbazole-3-carboxamide], in test [1], a half-maximal response (EC50) required 29.6 nM and the Emax amounted to 120%. Also, in test [2], the affinity, expressed as Ki, was 19.6 nM.

In test [1], `CCNC(=O)[C@@H](C)N(C)C(=O)c1ccc2c(c1)c1c(n2C)CCC(C2CCOCC2)C1` (stereo partly drawn) [N-[(1R)-1-(ethylcarbamoyl)ethyl]-N,9-dimethyl-6-(oxan-4-yl)-5,6,7,8-tetrahydrocarbazole-3-carboxamide] displayed an EC50 of 237 nM and a maximum response (Emax) of 112%. The Ki in test [2] was determined as 77.1 nM.

In test [1], `Cn1c2c(c3cc(C(=O)N4CCC[C@H](NC(=O)C5CC5)C4)ccc31)CC(C1CCOCC1)CC2` (stereo partly drawn) [N-[(3S)-1-[9-methyl-6-(oxan-4-yl)5,6,7,8-tetrahydrocarbazole-3-carbonyl]-3-piperidyl]cyclopropanecarboxamide] came in with an EC50 of 87.2 nM and an Emax of 119%. Also, in test [2], the affinity, expressed as Ki, was 43.4 nM.

For `Cn1c2c(c3cc(C(=O)N4CC(C(=O)NC5CC5)C4)ccc31)CC(C1CCOCC1)CC2` (stereo not drawn) [N-cyclopropyl-1-[9-methyl-6-(oxan-4-yl)5,6,7,8-tetrahydrocarbazole-3-carbonyl]azetidine-3-carboxamide], in test [1], the midpoint of the response, the EC50, lay at 274 nM and the Emax was 121%. For the same molecule, the Ki in test [2] was 107 nM.

In test [1], `Cn1c2c(c3cc(C(=O)N4CCCC(C(=O)NC5CC5)C4)ccc31)CC(C1CCOCC1)CC2` (stereo not drawn) [N-cyclopropyl-1-[9-methyl-6-(oxan-4-yl)5,6,7,8-tetrahydrocarbazole-3-carbonyl]piperidine-3-carboxamide] yielded a half-maximal effective concentration (EC50) of 128 nM and a maximal effect (Emax) of 115%. The affinity in test [2], expressed as Ki, was 32.4 nM.

For `Cn1c2c(c3cc(C(=O)N4CCC(C(=O)NC5CC5)CC4)ccc31)CC(C1CCOCC1)CC2` (stereo not drawn) [N-cyclopropyl-1-[9-methyl-6-(oxan-4-yl)5,6,7,8-tetrahydrocarbazole-3-carbonyl]piperidine-4-carboxamide], in test [1], the 50% effective concentration (EC50) came out at 214 nM and the maximal effect (Emax) worked out at 102%. This molecule also showed a Ki in test [2] of 118 nM.

In test [1], `Cn1c2c(c3cc(C(=O)N4CCC(C(=O)NC5CC5)C4)ccc31)CC(C1CCOCC1)CC2` (stereo not drawn) [N-cyclopropyl-1-[9-methyl-6-(oxan-4-yl)5,6,7,8-tetrahydrocarbazole-3-carbonyl]pyrrolidine-3-carboxamide] came in with a half-maximal effective concentration (EC50) of 18.5 nM and an Emax of 121%. In test [2], this molecule yielded an inhibition constant (Ki) of 26 nM.

In test [1], `Cn1c2c(c3cc(C(=O)N4CC[C@H](CC(=O)NC5CC5)C4)ccc31)CC(C1CCOCC1)CC2` (stereo partly drawn) [N-cyclopropyl-2-[(3R)-1-[9-methyl-6-(oxan-4-yl)5,6,7,8-tetrahydrocarbazole-3-carbonyl]pyrrolidin-3-yl]acetamide] registered an EC50 of 69.2 nM and an Emax of 115%. The inhibition constant Ki in test [2] was 35.5 nM.

`CCNC(=O)C1CCN(C(=O)c2ccc3c(c2)c2c(n3C)CCC(C3CCOCC3)C2)C1` (stereo not drawn) [N-ethyl-1-[9-methyl-6-(oxan-4-yl)5,6,7,8-tetrahydrocarbazole-3-carbonyl]pyrrolidine-3-carboxamide]: in test [1], the concentration giving a half-maximal response (EC50) worked out at 324 nM and the Emax turned out to be 119%. In addition, the Ki in test [2] was found to be 163 nM.

Take `CCN(CC(=O)NCC(F)(F)F)C(=O)c1ccc2c(c1)c1c(n2S(=O)(=O)CC)CCC(C2CCOCC2)C1` (stereo not drawn) [N-ethyl-9-ethylsulfonyl-6-(oxan-4-yl)-N-(2,2,2-trifluoroethylcarbamoylmethyl)-5,6,7,8-tetrahydrocarbazole-3-carboxamide]: in test [1], the EC50 was found to be 51.4 nM and the maximum response (Emax) was found to be 112%. The molecule also returned a Ki in test [2] of 25.1 nM.

With `CCN(CC(=O)NCCF)C(=O)c1ccc2c(c1)c1c(n2S(=O)(=O)CC)CCC(C2CCOCC2)C1` (stereo not drawn) [N-ethyl-9-ethylsulfonyl-N-(2-fluoroethylcarbamoylmethyl)-6-(oxan-4-yl)-5,6,7,8-tetrahydrocarbazole-3-carboxamide], in test [1], a half-maximal response (EC50) required 12.9 nM and the Emax stood at 107%. The molecule further gave a Ki in test [2] of 12.9 nM.

In test [1], `CCN(CC(=O)NCCCF)C(=O)c1ccc2c(c1)c1c(n2S(=O)(=O)CC)CCC(C2CCOCC2)C1` (stereo not drawn) [N-ethyl-9-ethylsulfonyl-N-(3-fluoropropylcarbamoylmethyl)-6-(oxan-4-yl)-5,6,7,8-tetrahydrocarbazole-3-carboxamide] had a concentration for a half-maximal effect (EC50) of 33 nM and a maximal effect (Emax) of 120%. This molecule yielded a Ki in test [2] of 24 nM.

In test [1], `CCN(CC(=O)NCCCO)C(=O)c1ccc2c(c1)c1c(n2S(=O)(=O)CC)CCC(C2CCOCC2)C1` (stereo not drawn) [N-ethyl-9-ethylsulfonyl-N-(3-hydroxypropylcarbamoylmethyl)-6-(oxan-4-yl)-5,6,7,8-tetrahydrocarbazole-3-carboxamide] came in with an EC50 of 53.3 nM and an Emax of 126%. The molecule also yielded a Ki in test [2] of 45.8 nM.

In test [1], `CCN(CC(=O)NC1COC1)C(=O)c1ccc2c(c1)c1c(n2C)CCC(C2CCOCC2)C1` (stereo not drawn) [N-ethyl-9-methyl-6-(oxan-4-yl)-N-(oxetan-3-ylcarbamoylmethyl)-5,6,7,8-tetrahydrocarbazole-3-carboxamide] came in with a concentration for a half-maximal effect (EC50) of 128 nM and an Emax of 117%. Moreover, the inhibition constant (Ki) in test [2] worked out at 63 nM.

Turning to `CCN(CC(=O)NC(C)C)C(=O)c1ccc2c(c1)c1c(n2C)CCC(C2CCOCC2)C1` (stereo not drawn) [N-ethyl-9-methyl-6-(oxan-4-yl)-N-(propan-2-ylcarbamoylmethyl)-5,6,7,8-tetrahydrocarbazole-3-carboxamide], in test [1], the concentration for a half-maximal effect (EC50) was determined as 41.7 nM and the maximum response (Emax) came out at 123%. In test [2], the affinity corresponds to a Ki of 31.3 nM.

As for `CCN(CC(=O)N[C@@H]1CCOC1)C(=O)c1ccc2c(c1)c1c(n2C)CCC(C2CCOCC2)C1` (stereo partly drawn) [N-ethyl-9-methyl-6-(oxan-4-yl)-N-[[(3R)-oxolan-3-yl]carbamoylmethyl]-5,6,7,8-tetrahydrocarbazole-3-carboxamide], in test [1], the concentration giving a half-maximal response (EC50) came out at 525 nM and the maximum response (Emax) came out at 127%. The inhibition constant Ki in test [2] worked out at 218 nM.

For `CCN(CC(=O)N[C@H]1CCOC1)C(=O)c1ccc2c(c1)c1c(n2C)CCC(C2CCOCC2)C1` (stereo partly drawn) [N-ethyl-9-methyl-6-(oxan-4-yl)-N-[[(3S)-oxolan-3-yl]carbamoylmethyl]-5,6,7,8-tetrahydrocarbazole-3-carboxamide], in test [1], the EC50 worked out at 100 nM and the Emax was determined as 122%. Further, the affinity in test [2] corresponds to a Ki of 58.1 nM.

In test [1], `CCN(CC(=O)NC)C(=O)c1ccc2c(c1)c1c(n2C)CCC(C2CCOCC2)C1` (stereo not drawn) [N-ethyl-9-methyl-N-(methylcarbamoylmethyl)-6-(oxan-4-yl)-5,6,7,8-tetrahydrocarbazole-3-carboxamide] had an EC50 of 342 nM and an Emax of 116%. In test [2], the Ki was 140 nM.

In general, EC50 refers to the concentration needed to bring the measured effect to its halfway point. One may read the Emax as the size of the effect at its maximum, as opposed to the concentration needed. The term Ki denotes the dissociation constant of the complex between target and ligand, obtained from inhibition or displacement. Read a high Ki as lower affinity.
